Values quoted from earlier work in patent US20030113384A1, “Antimicrobial compositions for mastitis control” (Ecolab Inc., priority 1999, published 2003).

pKa: 4.4
SMILES: CCCCCCC(=O)O [heptanoic acid]
